{
  "source": "paper PMC3944389",
  "about": "“Differential Neuroprotective Effects of 5′-Deoxy-5′-Methylthioadenosine” (PLoS ONE, 2014)",
  "key": {"[1]": {"system": "C57Bl mice treated with MPTP", "test": "MPTP mouse model of Parkinson's disease, stereological counting of TH+ neurons", "assay_type": "in vivo", "details": "MTA 30 mg/kg, MSX-3 10 mg/kg (legend: 9 mg/kg), alone or combined; MPTP 30 mg/kg i.p. 5 days", "procedure": "12-week-old male C57Bl mice from Charles River (Barcelona, Spain) were injected i.p. with 30 mg/kg 1-methyl-4-phenyl-1,2,3,6-tetrahydropyridine (MPTP, Sigma-Aldrich) on five consecutive days. Subsequently, MTA (30 mg/kg) and/or the A2A adenosine receptor (A2AR, 10 mg/kg) antagonist, MSX-3 (Sigma-Aldrich), was administered one day before starting MPTP treatment and 1 h after each MPTP injection (n = 6 in each experimental group). We used mice in the MPTP model because rats are resistant to systemic MPTP administration and thus, the rat MPTP model requires stereotaxic MPTP injection directly into the nigrostriatal fibers. […]\nThe reference volume was calculated according to Cavalieri principles from images obtained with a 2× objective using a point count array. The cross-sectional area of the nucleus was measured and the reference volume (Vr) for the entire nucleus was estimated using the following equation: [drawing 1] where T is the thickness of the sections, a/p is the area of each point and Pi is the number of points that landed within the area. The region of interest to estimate the area was outlined at low magnification (4×), and the number of labeled neurons was calculated under 100× magnification (with oil immersion) using randomized meander sampling and the optical dissector methods. […]"}, "[2]": {"system": "rat mixed cultures of neurons and astrocytes", "test": "Oxygen-glucose deprivation (OGD) with iodoacetate, LDH release", "assay_type": "cell-based", "details": "IAA 20 and 50 µM; MTA 10 µM or 100 µM, APV 100 µM", "procedure": "(§1) Finally, to prepare neuron-astrocyte co-cultures, neurons were resuspended in B27 Neurobasal medium plus 10% of foetal bovine serum (FBS) and then seeded onto a monolayer of astrocytes in 24-well plates at a density of 1–2×10^5 cells per well, the astrocytes having been prepared beforehand, as described elsewhere. One day later, the medium was replaced with B27-Neurobasal plus 10% FBS medium, and the cells were maintained at 37°C in 5% CO2. The cultures were used 8–9 days after plating. Neurons and astrocytes were identified with antibodies against microtubule-associated protein-2 and GFAP, respectively.\nIschemic damage was induced by incubating cell cultures for 1 h in a hyperbaric chamber in a nitrogen-saturated buffer containing: 130 mM NaCl, 5.4 mM KCl, 0.1323 mM CaCl2, 0.26 mM NaHCO3, 0.8 mM MgCl2, 1.18 mM NaH2PO4, 10 mM sucrose (OGD plus sucrose) and iodoacetate (IAA, 20 or 50 µM). IAA is a glycolytic blocker typically used in OGD experiments to simulate ischemic conditions. After the insult, the cells were incubated under normoxic conditions for an additional 24 h in the presence of glucose but in the absence of IAA. Distinct reagents were added during ischemia to evaluate their neuroprotective activity by assessing cell viability and cell death in the cultures.\nThe cell status was assessed by measuring the release of lactate dehydrogenase (LDH) from dead cells. LDH was measured spectrophotometrically at 490 nm on a 96-well plate reader using the Cytotox 96 Kit according to the manufacturer's instructions (Promega). The LDH release was defined by the ratio of LDH released to the total LDH present in the cell at the beginning of the treatment."}, "[3]": {"system": "co-culture of bovine-brain endothelial cells (BBECs) and newborn rat astrocytes", "test": "In vitro cell model of transport across the BBB", "assay_type": "in vitro ADME", "procedure": "A in vitro cell model of BBB permeability was established using a co-culture of bovine-brain endothelial cells (BBECs) and newborn rat astrocytes. The cells were first cultured in 24-well (Transwell^R) permeable supports with a surface area of 0.33 cm^2 and a pore size of 0.4 µm (Corning), the upper surface of which was coated with collagen type IV and fibronectin. The inserts were then placed upside down in a large petri dish, and 40 µL of a suspension (containing approximately 45,000 astrocytes) was placed on the bottom of each filter. The petri dish was incubated at 37°C for 1 h, and 40 µL of fresh DMEM+S was added to the bottom of each filter every 15 min. The inserts were then transferred back to the plate and incubated at 37°C in 5% CO2 for 3 d. Then, 2 h before seeding the BBECs, the medium was replaced by DMEM+S supplemented with 125 µg/mL heparin and 2 h later, the cells were seeded onto the inserts (45,000 cells per filter). The plate was incubated at 37°C in 5% CO2 for 3 more days, after which the medium was replaced by DMEM+S supplemented with cyclic adenosine monophosphate (cAMP) and RO-20-1724, and kept at 37°C in 5% CO2. On day 8 of the co-culture, the transendothelial electrical resistance (TEER) was measured to determine whether the system was ready for transport studies. To validate the maturity of the model, permeability assays with lucifer yellow (LY) were performed in parallel as a marker of the integrity of the in vitro barrier. During the permeability assay, the samples were co-incubated with LY (20 µM) to assess the integrity of the cellular monolayer during the assay."}, "[4]": {"system": "rat mixed astrocyte-neuron cultures", "test": "NMDA-induced caspase 3 activation in mixed astrocyte-neuron cultures", "assay_type": "cell-based", "details": "pre- or co-treatment; MTA 250 µM, MK-801 10 µM; 300 µM NMDA", "procedure": "as §1\nTo assay N-methyl–D-aspartate (NMDA) excitotoxicity, primary cultures were seeded in 24-well plates at 15×10^4 cells/well, cultured for 7 days in vitro, and treated for different times with the vehicle alone (dimethyl sulfoxide (DMSO) 1%), NMDA (300 µM), NMDA (300 µM) + MTA (250 µM) or NMDA (300 µM) + MK-801, a NMDA receptor antagonist (10 µM). […] Caspase 3 activity was measured in these lysates one hour after the NMDA addition.\nCortical neurons, or mixed cortical neurons and glia, were seeded in poly-L-lysine-coated 6-well culture plates during 7 days in vitro before start the set of experiments. […] The extracts were then centrifuged at 5,000×g for 10 min at 4°C and the protein content was determined by the BCA protein assay. […]"}, "[5]": {"test": "Parallel artificial membrane permeability assay (PAMPA), BBB model, passive diffusion", "assay_type": "in vitro ADME", "procedure": "The PAMPA assay was used to determine the capacity of compounds to cross a blood brain barrier (BBB) model by passive diffusion, measuring the effective permeability of the compounds at an initial concentration of 200 µM. The buffer solution was prepared from a concentrated commercial solution (Pion, Billerica, MA, US) according to the manufacturer's instructions and the pH was adjusted to 7.4 with 0.5 M NaOH. The compound of interest was dissolved in the buffer solution (200 µM), the PAMPA sandwich was separated and the donor well was filled with 195 µL of the compound of interest. The acceptor plate and donor plate were brought together, with the underside of the membrane in contact with the buffer. An 4 µL aliquot of the phospholipid mixture (20 mg/ml) in dodecane was added to the filter of each well, and then 200 µL of buffer solution was added to each acceptor well. The plate was covered and incubated for 4 h at RT in a saturated humidity atmosphere with agitation and with 25 µm of an unstirred water layer in the Gut-Box (Pion). After 4 h, a 150 µL/well sample from the donor plate and a 150 µL/well sample from the acceptor plate were transferred to HPLC vials. Then, 100 µL from acceptor well, 5 µL from the donor well and 5 µL from the t0 samples were injected into an HPLC reverse-phase symmetry C18 column (150 mm×4.6 mm×5 µm, 100 Å; Waters). Transport was confirmed by HPLC mass spectrometry and matrix-assisted laser desorption/ionization time-of-flight (MALDI-TOF) spectrometry to ensure the compound had maintained its integrity. The phospholipid mixture used was a porcine polar brain lipid extract composed of 12.6% phosphatidylcholine (PC), 33.1% phosphatidylethanolamine (PE), 18.5% phosphatidylserine (PS), 4.1% phosphatidylinositol (PI), 0.8% phosphatidic acid and 30.9% of other compounds."}},
  "data": [
    {"molecule": "C#CCn1c(=O)c2c(nc(/C=C/c3cccc(OC)c3)n2C)n(CCCOP(=O)([O-])[O-])c1=O.[Na+].[Na+]", "note": "[MSX-3, reference compound]", "values": [
      {"measurement": "neuroprotection: TH+ neurons in the substantia nigra", "setting": "[1]", "result": "not statistically significant"}
    ]},
    {"molecule": "N[C@H](CCCP(=O)(O)O)C(=O)O", "note": "[APV, (2R)-amino-5-phosphonovaleric acid, reference compound]", "values": [
      {"measurement": "protection against OGD (cell death, LDH release)", "setting": "[2]", "result": "similar"}
    ]},
    {"molecule": "Apo E: control compound in the in vitro cell model of BBB", "values": [
      {"measurement": "Pe x 10^−6 (cm/s)", "setting": "[3]", "result": "2.2 x 10^−6 cm/s"},
      {"measurement": "effective permeability coefficient (Pe)", "setting": "[3]", "result": 2.2, "unit": "×10⁻⁶ cm/s"}
    ]},
    {"molecule": "C[C@]12N[C@H](Cc3ccccc31)c1ccccc12", "note": "[MK-801, reference compound]", "values": [
      {"measurement": "caspase 3 activation induced by NMDA", "setting": "[4]", "result": "reverted to basal levels"}
    ]},
    {"molecule": "NC(=O)N1c2ccccc2C=Cc2ccccc21", "note": "[Carbamazepine]", "values": [
      {"measurement": "% Membrane retention", "setting": "[5]; 200 µM, pH 7.4, 4 h at RT", "result": 0.5, "unit": "%"},
      {"measurement": "Papp at 4 h, 200 µM", "setting": "[5]; 200 µM, pH 7.4, 4 h at RT, read-out: Pe x 10^−6", "result": 11.5, "unit": "×10⁻⁶ cm/s"}
    ]},
    {"molecule": "CC(C)NCC(O)COc1cccc2ccccc12", "note": "(stereo not drawn) [Propanolol, propranolol]", "values": [
      {"measurement": "Membrane retention", "setting": "[5]", "result": 30, "unit": "%"},
      {"measurement": "% Membrane retention", "setting": "[5]; 200 µM, pH 7.4, 4 h at RT", "result": 30.2, "unit": "%"},
      {"measurement": "Pe x 10^−6 (cm/s)", "setting": "[5]; 200 µM, pH 7.4, 4 h at RT", "result": "10.3 x 10^−6 cm/s"}
    ]},
    {"molecule": "Transferrin: control compound in the in vitro cell model of BBB", "values": [
      {"measurement": "Pe x 10^−6 (cm/s)", "setting": "[3]", "result": "8.2 x 10^−6 cm/s"},
      {"measurement": "effective permeability coefficient (Pe)", "setting": "[3]", "result": 8.2, "unit": "×10⁻⁶ cm/s"}
    ]}
  ]
}
